Key:
Format in all cases: cell-based
[1] = tested on: DLD-1; assay: MTS assay (cell growth inhibition), DLD-1; conditions: DLD-1 cells, 72 hours incubation with test compound; concentration not given
Protocol: (§1) Cells were maintained at 37° C., 5% CO2 in DMEM media supplemented with 1% fetal bovine serum, penicillin/streptomycin and fungizone (Invitrogen). Cells were seeded into 96-well tissue culture plates at 3000 per well and cultured at 37° C. for 18 hours. Test compounds were dissolved and diluted to 300× in DMSO then diluted 1:40 in DMEM. Cells were incubated with test compounds for 72 hours followed by incubation with tetrazolium compound (3-(4,5-dimethylthiazol-2-yl)-5-(3-carboxymethoxyphenyl)-2-(4-sulfophenyl)-2H-tetrazolium, inner salt; MTS) and the electron coupling reagent, phenazine methosulfate (PMS) for 4 hours. […] The ability of compounds to inhibit cell growth in this assay is correlated with the reduction of dehydrogenase enzyme activity found in metabolically active cells. The measurement of the absorbance of the formazan was assessed using an ENVISION™ (Perkin Elmer) microplate reader at 492 nm. The calculated IC50 value is the concentration of the test compound that causes a 50% decrease in the absorbance.

[2] = tested on: Kato III; assay: MTS assay (cell growth inhibition), Kato III; conditions: Kato III cells, 72 hours incubation with test compound; concentration not given
Protocol: as §1

[3] = tested on: MDA-MB; assay: MTS assay (cell growth inhibition), MDA-MB; conditions: MDA-MB cells, 72 hours incubation with test compound; concentration not given
Protocol: as §1

[4] = tested on: NCI-H1299; assay: MTS assay (cell growth inhibition), NCI-H1299; conditions: NCI-H1299 cells, 72 hours incubation with test compound; concentration not given
Protocol: as §1

[5] = tested on: PACA-2; assay: MTS assay (cell growth inhibition), PACA-2; conditions: PACA-2 cells, 72 hours incubation with test compound; concentration not given
Protocol: as §1

[6] = tested on: PC-3; assay: MTS assay (cell growth inhibition), PC-3; conditions: PC-3 cells, 72 hours incubation with test compound; concentration not given
Protocol: as §1

Compound | MTS CELL KILL DATA (% INHIBITION) DLD-1 [1] | MTS CELL KILL DATA (% INHIBITION) Kato III [2] | MTS CELL KILL DATA (% INHIBITION) MDA-MB [3] | MTS CELL KILL DATA (% INHIBITION) NCI-H1299 [4] | MTS CELL KILL DATA (% INHIBITION) PACA-2 [5] | MTS CELL KILL DATA (% INHIBITION) PC-3 [6]
O=C1c2cnc3[nH]ncc3c2C(=O)N1Cc1ccc(F)c(F)c1F [Example 20, 7-(2,3,4-trifluorobenzyl)pyrazolo[3,4-b]pyrrolo[3,4-d]pyrindine-6,8(3H,7H)-dione] | C (C = <50% INHIBITION) | C (C = <50% INHIBITION) | A (A = 80-100% INHIBITION) | C (C = <50% INHIBITION) | C (C = <50% INHIBITION) | A (A = 80-100% INHIBITION)
O=C1c2cnc3[nH]ncc3c2C(=O)N1CCc1c2ccccc2cc2ccccc12 [Example 129, 7-[2-(9-anthryl)ethyl]pyrazolo[3,4-b]pyrrolo[3,4-d]pyridine-6,8(3H,7H)-dione] | A (A = 80-100% INHIBITION) | C (C = <50% INHIBITION) | A (A = 80-100% INHIBITION) | C (C = <50% INHIBITION) | C (C = <50% INHIBITION) | A (A = 80-100% INHIBITION)
O=C1c2cnc3[nH]ncc3c2C(=O)N1CC1CCC1 [Example 76, 7-(cyclobutylmethyl)pyrazolo[3,4-b]pyrrolo[3,4-d]pyridine-6,8(3H,7H)-dione] | C (C = <50% INHIBITION) | C (C = <50% INHIBITION) | C (C = <50% INHIBITION) | C (C = <50% INHIBITION) | C (C = <50% INHIBITION) | C (C = <50% INHIBITION)
O=C1c2ccccc2C(=O)N1CCN1C(=O)c2cnc3[nH]ncc3c2C1=O [Example 131, 7-[2-(1,3-dioxo-1,3-dihydro-2H-isoindol-2-yl)ethyl]pyrazolo[3,4-b]pyrrolo[3,4-d]pyridine-6,8(3H,7H)-dione] | A (A = 80-100% INHIBITION) | A (A = 80-100% INHIBITION) | A (A = 80-100% INHIBITION) | A (A = 80-100% INHIBITION) | A (A = 80-100% INHIBITION) | A (A = 80-100% INHIBITION)
NC(=O)c1ccc(-c2n[nH]c3ncc4c(c23)C(=O)N(CCc2ccccc2)C4=O)cc1 [Example 160, 4-[6,8-dioxo-7-(2-phenylethyl)-3,6,7,8-tetrahydropyrazolo[3,4-b]pyrrolo[3,4-d]pyridin-1-yl]benzamide] | A (A = 80-100% INHIBITION) | A (A = 80-100% INHIBITION) | A (A = 80-100% INHIBITION) | B (B = 50-79% INHIBITION) | A (A = 80-100% INHIBITION) | A (A = 80-100% INHIBITION)
O=C1c2cnc3[nH]nc(-c4ccc(F)c(F)c4)c3c2C(=O)N1CCc1ccccc1 [Example 162, 1-(3,4-difluorophenyl)-7-(2-phenylethyl)pyrazolo[3,4-b]pyrrolo[3,4-d]pyridine-6,8(3H,7H)-dione] | C (C = <50% INHIBITION) | C (C = <50% INHIBITION) | C (C = <50% INHIBITION) | C (C = <50% INHIBITION) | B (B = 50-79% INHIBITION) | C (C = <50% INHIBITION)
O=C1c2cnc3[nH]ncc3c2C(=O)N1Cc1ccncc1 [Example 43, 7-(pyridin-4-ylmethyl)pyrazolo[3,4-b]pyrrolo[3,4-d]pyridine-6,8(3H,7H)-dione] | C (C = <50% INHIBITION) | C (C = <50% INHIBITION) | A (A = 80-100% INHIBITION) | C (C = <50% INHIBITION) | A (A = 80-100% INHIBITION) | A (A = 80-100% INHIBITION)
O=C1c2cnc3[nH]ncc3c2C(=O)N1Cc1cccc(Br)c1 [Example 104, 7-(3-bromobenzyl)pyrazolo[3,4-b]pyrrolo[3,4-d]pyridine-6,8(3H ,7H)-dione] | A (A = 80-100% INHIBITION) | A (A = 80-100% INHIBITION) | A (A = 80-100% INHIBITION) | A (A = 80-100% INHIBITION) | A (A = 80-100% INHIBITION) | A (A = 80-100% INHIBITION)
CC(C)c1ccc(CN2C(=O)c3cnc4[nH]ncc4c3C2=O)cc1 [Example 14, 7-(4-isopropylbenzyl)pyrazolo[3,4-b]pyrrolo[3,4-d]pyridine-6,8(3H,7H)-dione] | C (C = <50% INHIBITION) | B (B = 50-79% INHIBITION) | A (A = 80-100% INHIBITION) | C (C = <50% INHIBITION) | C (C = <50% INHIBITION) | A (A = 80-100% INHIBITION)
C[C@H](CN1C(=O)c2cnc3[nH]ncc3c2C1=O)c1ccccc1 [Example 121, 7-[(2S)-2-phenylpropyl]pyrazolo[3,4-b]pyrrolo[3,4-d]pyridine-6,8(3H,7H)-dione] | C (C = <50% INHIBITION) | C (C = <50% INHIBITION) | B (B = 50-79% INHIBITION) | C (C = <50% INHIBITION) | C (C = <50% INHIBITION) | A (A = 80-100% INHIBITION)
O=C1c2cnc3[nH]ncc3c2C(=O)N1CC1C[C@H]2CC[C@@H]1C2 (stereo partly drawn) [Example 35, 7-[(1R,4S)-bicyclo[2.2.1]hept-2-ylmethyl]pyrazolo[3,4-b]pyrrolo[3,4-d]pyridine-6,8(3H,7H)-dione] | C (C = <50% INHIBITION) | C (C = <50% INHIBITION) | C (C = <50% INHIBITION) | C (C = <50% INHIBITION) | C (C = <50% INHIBITION) | C (C = <50% INHIBITION)
O=C1c2cnc3[nH]ncc3c2C(=O)N1Cc1cc(Cl)ccc1Cl [Example 61, 7-(2,5-dichlorobenzyl)pyrazolo[3,4-b]pyrrolo[3,4-d]pyridine-6,8(3H,7H)-dione] | B (B = 50-79% INHIBITION) | B (B = 50-79% INHIBITION) | A (A = 80-100% INHIBITION) | C (C = <50% INHIBITION) | C (C = <50% INHIBITION) | C (C = <50% INHIBITION)
O=C1c2cnc3[nH]ncc3c2C(=O)N1CCc1cccc2ccccc12 [Example 77, 7-[2-(1-naphthyl)ethyl]pyrazolo[3,4-b]pyrrolo[3,4-d]pyridine-6,8(3H,7H)-dione] | A (A = 80-100% INHIBITION) | A (A = 80-100% INHIBITION) | A (A = 80-100% INHIBITION) | A (A = 80-100% INHIBITION) | A (A = 80-100% INHIBITION) | A (A = 80-100% INHIBITION)
CCCC(C)CCN1C(=O)c2cnc3[nH]ncc3c2C1=O (stereo not drawn) [Example 114, 7-(3-methylhexyl)pyrazolo[3,4-b]pyrrolo[3,4-d]pyridine-6,8(3H,7H)-dione] | C (C = <50% INHIBITION) | C (C = <50% INHIBITION) | A (A = 80-100% INHIBITION) | C (C = <50% INHIBITION) | C (C = <50% INHIBITION) | B (B = 50-79% INHIBITION)
CCCC(CCC)CN1C(=O)c2cnc3[nH]ncc3c2C1=O [Example 63, 7-(2-propylpentyl)pyrazolo[3,4-b]pyrrolo[3,4-d]pyridine-6,8(3H,7H)-dione] | C (C = <50% INHIBITION) | C (C = <50% INHIBITION) | A (A = 80-100% INHIBITION) | C (C = <50% INHIBITION) | A (A = 80-100% INHIBITION) | A (A = 80-100% INHIBITION)

Reference: patent US8906928B2, “Substituted pyrazolo-pyrrolo-pyridine-dione compounds” (ArQule, Inc., priority 2009, dated 2014)
